The record followed here is publication PMC8861568, “Identification of (Z)-2-benzylidene-dihydroimidazothiazolone derivatives as tyrosinase inhibitors: Anti-melanogenic effects and in silico studies” (Computational and Structural Biotechnology Journal, 2022).

Assay [1] addresses mushroom tyrosinase (mTYR) (Agaricus bisporus, UniProt C7FF04). Briefly: Kinetics of mTYR inhibition (Lineweaver-Burk plots). The note with it: for mode of mTYR inhibition: Lineweaver-Burk plots, L-tyrosine; for Vmax: independent of inhibitor concentration. The assay is classed as biochemical. The method, then: Lineweaver-Burk double reciprocal plots were used to determine their inhibitory modes of action. Kinetic analyses were carried out using four concentrations of DHIT derivatives 1b (0, 0.0625, 0.125, or 0.25 μM) and 1f (0, 1, 2, or 4 μM) in the presence of different concentrations of L-tyrosine (0.5, 1, 2, 4, 8, or 16 mM for 1b and 1, 2, 4, or 8 mM for 1f). Lineweaver-Burk double reciprocal plots produced four different lines with different slopes, corresponding to the four concentrations, for each derivative. […] KM values were 1.515, 7.846, 15.740, and 23.586 mM at […], and 3.758, 4.892, 5.206, and 8.127 mM at 0, 1, 2, and 4 μM of 1f, respectively. […] The binding abilities of compounds 1b and 1f to the active site of tyrosinase were also supported by in silico docking simulation results (Figs. 5 and 6).
Lineweaver-Burk plots were used to determine modes of mTYR inhibition. Compounds 1b or 1f (10 μL, final concentrations: 0, 0.0625, 0.125, or 0.25 μM for 1b and 0, 1, 2 or 4 μM for 1f) and mTYR solution (20 μL, 150 units) were added to a 96-well plate containing 170 μL of a mixture containing aqueous L-tyrosine solution at final concentrations of 0.5, 1.0, 2.0, 4.0, 8.0, or 16 mM for 1b or 1.0, 2.0, 4.0, or 8.0 mM for 1f; aqueous L-tyrosine solution, distilled water, and 50 mM potassium phosphate buffer (pH 6.5) in the ratio 10:9:10. Initial rates of dopachrome formations in reaction mixtures were calculated by measuring increases in optical density at 492 nm (ΔOD492/min) using a microplate reader (VersaMax^TM, Molecular Devices, Sunnyvale, CA, USA). Maximum velocities of tyrosinase-L-tyrosine reactions were determined using Lineweaver-Burk plots (inverse of reaction velocity (1/V) versus the inverse of L-tyrosine concentration (1/[S])) obtained using 4 – 5 different concentrations of L-tyrosine. Modes of tyrosinase inhibition were determined using convergence points of plots.

The target of assay [2] is T1, tyrosinase in B16F10 cells (Mus musculus, UniProt P11344).
T1 construct: endogenous in cells; host or cells: B16F10 murine melanoma cells (ATCC), stimulated with alpha-MSH and IBMX
T1 sequence (P11344 19-533): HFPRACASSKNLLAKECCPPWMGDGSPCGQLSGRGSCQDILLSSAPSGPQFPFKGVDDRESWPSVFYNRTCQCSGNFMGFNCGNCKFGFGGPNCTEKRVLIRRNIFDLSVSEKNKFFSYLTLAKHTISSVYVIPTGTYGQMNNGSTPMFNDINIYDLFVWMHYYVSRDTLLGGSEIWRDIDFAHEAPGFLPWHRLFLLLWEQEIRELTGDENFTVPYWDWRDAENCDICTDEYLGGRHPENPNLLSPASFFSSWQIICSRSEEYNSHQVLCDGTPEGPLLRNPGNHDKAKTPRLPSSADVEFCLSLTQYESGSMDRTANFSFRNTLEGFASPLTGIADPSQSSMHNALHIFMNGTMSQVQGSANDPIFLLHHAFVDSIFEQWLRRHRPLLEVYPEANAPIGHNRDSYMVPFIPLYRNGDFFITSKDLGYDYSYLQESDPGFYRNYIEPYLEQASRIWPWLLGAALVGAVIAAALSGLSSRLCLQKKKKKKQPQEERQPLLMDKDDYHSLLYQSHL
Briefly: Cellular tyrosinase inhibition assay in B16F10 cells. The note with it: 48 h; for cellular tyrosinase activity: 5, 10, 20 μM, α-MSH 1 μM + IBMX 200 μM. The assay is classed as cell-based, murine. The method, then: B16F10 cells co-stimulated with α -melanocyte-stimulating hormone (α -MSH) and 3-isobutyl-1-methylxanthine (IBMX) were used to investigate the inhibitory effects of compounds 1b and 1f on mammal cellular tyrosinase. Kojic acid was used as the positive control. […] Cellular tyrosinase activities were determined by measuring optical densities at 492 nm.
Cellular tyrosinase inhibition assays were conducted as previously described with minor modification. B16F10 cells were seeded at a density of 1 × 10^5 cells/well in 6-well plates and incubated in a humidified 5% CO2 atmosphere for 24 h at 37 °C. […] Cells were then washed twice with PBS, lysed by adding 45 mM of phosphate buffer (100 µL) containing 1% Triton X-100 (5 µL) and 1% PMSF (5 µL, phenylmethylsulfonyl fluoride) and frozen at −80 °C for 1 h. Lysates were clarified by centrifugation at 12,000 rpm for 30 min at 4 °C. Cell lysate supernatants (80 µL/well) in a 96-well plate were then mixed with 20 µL of L-DOPA (2 mg/mL in distilled water) and incubated for 30 min at 37 °C. Absorbances of reaction mixtures at 492 nm were recorded using a microplate reader (VersaMax^TM, Molecular Devices, Sunnyvale, CA, USA). Kojic acid was used as the positive control. Protein concentrations were determined using Bicinchoninic Acid (BCA) protein assay reagent using Bovine Serum Albumin (BSA) as the standard (Thermo Scientific, Rockford, IL, USA). All experiments were independently conducted three times.

“Also recorded” adds a separate entry of the source.

Sequence of mushroom tyrosinase (mTYR) (C7FF04 1-392): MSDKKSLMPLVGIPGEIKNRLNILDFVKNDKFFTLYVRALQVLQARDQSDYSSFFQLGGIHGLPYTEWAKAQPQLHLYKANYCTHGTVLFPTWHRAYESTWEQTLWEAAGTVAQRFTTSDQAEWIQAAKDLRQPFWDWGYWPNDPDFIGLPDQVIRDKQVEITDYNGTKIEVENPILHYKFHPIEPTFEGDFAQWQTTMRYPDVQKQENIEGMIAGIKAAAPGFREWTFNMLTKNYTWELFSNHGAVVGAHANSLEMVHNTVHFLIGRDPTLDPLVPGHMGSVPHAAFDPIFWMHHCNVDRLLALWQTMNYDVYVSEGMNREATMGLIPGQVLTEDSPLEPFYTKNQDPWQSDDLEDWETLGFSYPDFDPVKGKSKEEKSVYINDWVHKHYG

As to `O=c1/c(=C/c2ccc(O)cc2O)sc2n1CCN=2` [Compound 1b, (Z)-2-(2,4-Dihydroxybenzylidene)-5,6-dihydroimidazo[2,1-b]thiazol-3(2H)-one], the “mode of mTYR inhibition” value in assay [1] was “competitive inhibitors; also recorded: competitively inhibited”. Further, the Ki in assay [1] (at 0.0625 μM of 1b) worked out at 15 nM; in assay [1] (at 0.125 μM of 1b) it was 13.3 nM; in assay [1] (at 0.25 μM of 1b), 17.2 nM. Also, the Vmax in assay [1] was 0.0126 mM/min. The “cellular tyrosinase inhibition compared with kojic acid” value in assay [2] (1b at 10 μM, α-MSH + IBMX) was “to the same extent as compound 1f or kojic acid at 20 μM”. Also, the cellular tyrosinase activity result in assay [2] is “significantly and concentration-dependently reduced this increase in tyrosinase activity”.

In the case of `COc1ccc(/C=c2\sc3n(c2=O)CCN=3)cc1O` [Compound 1f, (Z)-2-(3-Hydroxy-4-methoxybenzylidene)-5,6-dihydroimidazo[2,1-b]thiazol-3(2H)-one], the “mode of mTYR inhibition” value in assay [1] is recorded as “competitive inhibitors; also recorded: competitively inhibited”. In addition, the Ki in assay [1] (at 1 μM of 1f) was determined as 3310 nM; in assay [1] (at 2 μM of 1f), 5190 nM; in assay [1] (at 4 μM of 1f), 3440 nM. The Vmax in assay [1] is listed as 0.0103 mM/min. The cellular tyrosinase activity entry in assay [2] is “significantly and concentration-dependently reduced this increase in tyrosinase activity”.
